Source: patent US6500853B1, “Inhibitors of phospholipase enzymes” (Genetics Institute, LLC, priority 1998, dated 2002)

Experiments:
[1] = system: Rat Carrageenan-Induced Footpad Edema; test: Rat Carrageenan-Induced Footpad Edema Test; format: in vivo, male Sprague Dawley rats; settings: footpad volume 3 hours after carrageenan
[2] = molecular target: T1, cPLA2 (Homo sapiens, UniProt P47712); test: Coumarin Assay (cPLA2 inhibition); format: biochemical; settings: for inhibition at 0.7 µM: CONCENTRATION 0.7 micromolar; for inhibition at 0.98 µM: CONCENTRATION 0.98 micromolar; for inhibition at 20 µM: CONCENTRATION 20 micromolar
T1 sequence (P47712 1-749): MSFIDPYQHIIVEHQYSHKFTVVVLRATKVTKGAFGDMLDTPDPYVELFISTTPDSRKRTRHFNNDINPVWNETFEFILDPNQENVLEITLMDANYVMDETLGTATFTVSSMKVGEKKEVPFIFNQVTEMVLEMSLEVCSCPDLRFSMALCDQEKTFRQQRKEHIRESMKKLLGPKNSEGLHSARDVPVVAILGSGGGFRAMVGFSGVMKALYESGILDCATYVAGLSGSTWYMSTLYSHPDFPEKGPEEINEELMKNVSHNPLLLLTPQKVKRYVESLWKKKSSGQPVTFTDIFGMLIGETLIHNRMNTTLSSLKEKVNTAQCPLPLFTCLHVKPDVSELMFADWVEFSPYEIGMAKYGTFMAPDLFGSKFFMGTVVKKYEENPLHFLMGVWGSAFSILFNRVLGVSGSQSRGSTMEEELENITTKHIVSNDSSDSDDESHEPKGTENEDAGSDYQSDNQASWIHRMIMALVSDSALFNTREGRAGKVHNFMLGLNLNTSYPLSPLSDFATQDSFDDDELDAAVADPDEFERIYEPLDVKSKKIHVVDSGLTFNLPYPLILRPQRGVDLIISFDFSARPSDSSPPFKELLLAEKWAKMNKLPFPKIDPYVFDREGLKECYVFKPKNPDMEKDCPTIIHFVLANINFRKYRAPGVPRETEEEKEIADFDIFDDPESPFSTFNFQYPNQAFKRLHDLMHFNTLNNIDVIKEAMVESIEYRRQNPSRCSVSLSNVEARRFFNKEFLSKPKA
Summary of the method: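 Percent inhibition at the stated concentration, from the rate of 460 nm emission rise (360 nm excitation) per minute. Reaction started by adding 4 μg enzyme to compound and 60 μM 7-hydroxycoumarinyl 6-heptenoate in Hepes buffer pH 7.5 with 1 mM EDTA.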

[3] = Rattus norvegicus, po, 3 h, PO, 2 mg/Kg, read-out: PERCENT INHIBITION
[4] = Rattus norvegicus, po, 3 h, PO, 10 mg/Kg, read-out: PERCENT INHIBITION
[5] = CONCENTRATION 0.85 micromolar, read-out: PERCENT INHIBITION @
[6] = CONCENTRATION 100 micromolar, read-out: PERCENT INHIBITION @

`COc1cc(C(=O)NS(=O)(=O)c2ccccc2C)ccc1Cc1cn(C(c2ccccc2)c2ccccc2)c2ccc(Br)cc12` [Example 38, N-{4-[(1-benzhydryl-5-bromo-1H-indol-3-yl)methyl]-3-methoxybenzoyl}-2-methylbenzenesulfonamide] gave an inhibition in vivo at 2 mg/kg [1, 3] of 15.4%, an inhibition in vivo at 10 mg/kg [1, 4] of 26.3% and an inhibition at 0.3 µM ([2]; CONCENTRATION 0.3 micromolar, read-out: PERCENT INHIBITION @) of 50%. For the same compound, the inhibition at 0.45 µM ([2]; CONCENTRATION 0.45 micromolar, read-out: PERCENT INHIBITION @) was 50%, the inhibition at 0.57 µM ([2]; CONCENTRATION 0.57 micromolar, read-out: PERCENT INHIBITION @) was 50% and the inhibition at 0.59 µM ([2]; CONCENTRATION 0.59 micromolar, read-out: PERCENT INHIBITION @) was 50%. It also gave an inhibition at 0.6 µM ([2]; CONCENTRATION 0.6 micromolar, read-out: PERCENT INHIBITION @) of 50%, an inhibition at 0.64 µM ([2]; CONCENTRATION 0.64 micromolar, read-out: PERCENT INHIBITION @) of 50% and an inhibition at 0.7 µM ([2]; read-out: PERCENT INHIBITION @) of 50%. The inhibition at 0.85 µM [2, 5] was 50% and the inhibition at 1 µM ([2]; CONCENTRATION 1 micromolar, read-out: PERCENT INHIBITION @) was 50%.

`COc1cc(C(=O)O)ccc1Cc1cn(C(C)C)c2ccc(NC(=O)OC3CCCC3)cc12` [Example 7, 4-[(5-{[(cylopentyloxy)carbonyl]amino}-1-isopropyl-1H-indol-3yl)methyl]-3-methoxybenzoic acid] was tested, and the “PERCENT INHIBITION” value ([1]; IV, 5 mg/Kg) was −0.65%, the “PERCENT INHIBITION @” value ([2]; CONCENTRATION 50 micromolar) was 11% and the “PERCENT INHIBITION @” value ([2]; CONCENTRATION 235 micromolar) was 50%.

With `Cc1ccccc1S(=O)(=O)NC(=O)c1ccc(Cc2cn(C(c3ccccc3)c3ccccc3)c3ccc([N+](=O)[O-])cc23)cc1` [Example 56, N-{4-[(1-benzhydryl-5-nitro-1H-indol-3-yl)methyl]benzoyl}-2-methylbenzenesulfonamide] the inhibition in vivo at 2 mg/kg [1, 3] was 4.22%, the inhibition in vivo at 10 mg/kg [1, 4] was 9.34% and the inhibition at 0.98 µM ([2]; read-out: PERCENT INHIBITION @) was 50%. It also gave an inhibition at 1.2 µM ([2]; CONCENTRATION 1.2 micromolar, read-out: PERCENT INHIBITION @) of 50%.

With `COc1cc(C(=O)O)ccc1Cc1cn(C(c2ccccc2)c2ccccc2)c2ccc(C#N)cc12` [Example 17, 4-[(1-benzhydryl-5-cyano-1H-indol-3-yl)methyl]-3-methoxybenzoic acid] the inhibition in vivo at 2 mg/kg [1, 3] was 19.3%, the inhibition in vivo at 10 mg/kg [1, 4] was 34.5% and the inhibition at 0.7 µM ([2]; read-out: PERCENT INHIBITION @) was 50%. For the same compound, the inhibition at 0.8 µM ([2]; CONCENTRATION 0.8 micromolar, read-out: PERCENT INHIBITION @) was 50%, the inhibition at 0.85 µM [2, 5] was 50% and the inhibition at 0.98 µM ([2]; read-out: PERCENT INHIBITION @) was 50%.

`COc1cc(C(=O)O)ccc1Cc1cn(C(c2ccccc2)c2ccccc2)c2ccc(NS(=O)(=O)c3ccc(C(F)(F)F)cc3)cc12` [Example 89, 4-{[1-benzhydryl-5-({[4-(trifluoromethyl)phenyl]sulfonyl}amino)-1H-indol-3-yl]methyl}-3-methoxybenzoic acid] showed an inhibition in vivo at 2 mg/kg [1, 3] of 14.3%, an inhibition in vivo at 10 mg/kg [1, 4] of 16.4% and an inhibition at 4.4 µM ([2]; CONCENTRATION 4.4 micromolar, read-out: PERCENT INHIBITION @) of 50%. It also gave an inhibition at 4.8 µM ([2]; CONCENTRATION 4.8 micromolar, read-out: PERCENT INHIBITION @) of 50%.

For `O=C(O)CCNC(=O)c1cn(C(c2ccccc2)c2ccccc2)c2ccc(NC(=O)C3CCCC3)cc12` [Example 101, 3-[({1-benzhydryl-5-[(cyclopentylcarbonyl)amino]-1H-indol-3-yl}carbonyl)amino]propanoic acid], the inhibition in vivo at 2 mg/kg [1, 3] was 11.2%, the inhibition in vivo at 10 mg/kg [1, 4] was 12.4% and the inhibition at 100 µM [2, 6] was 6%. For the same compound, the inhibition at 400 µM ([2]; CONCENTRATION 400 micromolar, read-out: PERCENT INHIBITION @) was 49%.

`O=C(O)c1ccc(Cc2cn(C(c3ccccc3)c3ccccc3)c3ccc([N+](=O)[O-])cc23)cc1` [Example 50, 4-[(-benzhydryl-5-nitro-1H-indol-3-yl)methyl]benzoic acid] was tested, and the “PERCENT INHIBITION” value ([1]; PO, 2 mg/Kg) was 5.44%, the “PERCENT INHIBITION” value ([1]; PO, 10 mg/Kg) was 12.34% and the “PERCENT INHIBITION @” value ([2]; CONCENTRATION 0.8 micromolar) was 50%. The “PERCENT INHIBITION @” value ([2]; CONCENTRATION 0.85 micromolar) was 50%, the “PERCENT INHIBITION @” value ([2]; CONCENTRATION 1.05 micromolar) was 50% and the “PERCENT INHIBITION @” value ([2]; CONCENTRATION 2.5 micromolar) was 81%.

`COc1cc(C(=O)O)ccc1Cc1cn(C(c2ccccc2)c2ccccc2)c2ccc(F)cc12` [Example 14, 4-[(1-benzhydryl-5-fluoro-1H-indol-3-yl)methyl]-3-methoxybenzoic acid] was tested, and the inhibition in vivo at 2 mg/kg [1, 3] was 11.5%, the inhibition in vivo at 10 mg/kg [1, 4] was 8.14% and the inhibition at 0.7 µM ([2]; read-out: PERCENT INHIBITION @) was 50%. It also gave an inhibition at 0.95 µM ([2]; CONCENTRATION 0.95 micromolar, read-out: PERCENT INHIBITION @) of 50%.

Work on `O=C(O)c1cn(C(c2ccccc2)c2ccccc2)c2ccc(NC(=O)C3CCCC3)cc12` [Example 114, 1-benzhydryl-5-[(cyclopentylcarbonyl)amino]-1H-indole-3-carboxylic acid] yielded an inhibition in vivo at 2 mg/kg [1, 3] of 12.2%, an inhibition in vivo at 10 mg/kg [1, 4] of 22.2% and an inhibition at 100 µM [2, 6] of 45%. It also gave an inhibition at 152 µM ([2]; CONCENTRATION 152 micromolar, read-out: PERCENT INHIBITION @) of 50% and an inhibition at 170 µM ([2]; CONCENTRATION 170 micromolar, read-out: PERCENT INHIBITION @) of 50%.

For `COc1cc(C(=O)NS(=O)(=O)C(F)(F)F)ccc1Cc1cn(C(c2ccccc2)c2ccccc2)c2ccc(NC(=O)OCc3ccccc3)cc12` [Example 49, benzyl N-{1-benzhydryl-3-[2-methoxy-4-({[(trifluoromethyl)sulfonyl]amino}carbonyl)benzyl]-1H-indol-5-yl}carbamate], the inhibition in vivo at 5 mg/kg ([1]; Rattus norvegicus, iv, 3 h, IV, 5 mg/Kg, read-out: PERCENT INHIBITION) was 18%, the inhibition at 1.5 µM ([2]; CONCENTRATION 1.5 micromolar, read-out: PERCENT INHIBITION @) was 50% and the inhibition at 1.8 µM ([2]; CONCENTRATION 1.8 micromolar, read-out: PERCENT INHIBITION @) was 50%. The inhibition at 2.3 µM ([2]; CONCENTRATION 2.3 micromolar, read-out: PERCENT INHIBITION @) was 50%.

For `O=C(O)C(=O)c1cn(C(c2ccccc2)c2ccccc2)c2ccc(NC(=O)C3CCCC3)cc12` [Example 115], the “PERCENT INHIBITION” value ([1]; PO, 2 mg/Kg) was 1.24%, the “PERCENT INHIBITION” value ([1]; PO, 10 mg/Kg) was 18.46% and the “PERCENT INHIBITION @” value ([2]; CONCENTRATION 50 micromolar) was 89%. The “PERCENT INHIBITION @” value ([2]; CONCENTRATION 100 micromolar) was 20% and the “PERCENT INHIBITION @” value ([2]; CONCENTRATION 250 micromolar) was 50%.

For `O=C(Nc1ccc2c(c1)c(Cc1ccc(C(=O)NS(=O)(=O)C(F)(F)F)cc1)cn2C(c1ccccc1)c1ccccc1)OC1CCCC1` [Example 54], the “PERCENT INHIBITION” value ([1]; PO, 2 mg/Kg) was 2.47%, the “PERCENT INHIBITION” value ([1]; PO, 10 mg/Kg) was 14.29% and the “PERCENT INHIBITION @” value ([2]; CONCENTRATION 2.8 micromolar) was 50%. For the same compound, the “PERCENT INHIBITION @” value ([2]; CONCENTRATION 3.9 micromolar) was 50%.

Work on `Cc1ccccc1S(=O)(=O)NC(=O)c1cn(C(c2ccccc2)c2ccccc2)c2ccc(NC(=O)C3CCCC3)cc12` [Example 102, N-[1-benzhydryl-3-({[(2-methylphenyl)sulfonyl]amino}carbonyl)-1H-indol-5-yl]cyclopentanecarboxamide] yielded an inhibition in vivo at 2 mg/kg [1, 3] of 2.56%, an inhibition in vivo at 10 mg/kg [1, 4] of 8.48% and an inhibition at 20 µM ([2]; read-out: PERCENT INHIBITION @) of 31%. For the same compound, the inhibition at 48 µM ([2]; CONCENTRATION 48 micromolar, read-out: PERCENT INHIBITION @) was 50%.

`CS(=O)(=O)NC(=O)/C=C/c1cn(C(c2ccccc2)c2ccccc2)c2ccc([N+](=O)[O-])cc12` [Example 87B, N-((E)-3-{1-benzhydryl-5-nitro-1H-indol-3-yl}-2-propenoyl)methanesulfonamide] was tested, and the inhibition in vivo at 3 mg/kg ([1]; Rattus norvegicus, po, 3 h, PO, 3 mg/Kg, read-out: PERCENT INHIBITION) was 17.9%, the inhibition in vivo at 10 mg/kg [1, 4] was 31.4% and the inhibition at 38 µM ([2]; CONCENTRATION 38 micromolar, read-out: PERCENT INHIBITION @) was 50%. For the same compound, the inhibition at 42.5 µM ([2]; CONCENTRATION 42.5 micromolar, read-out: PERCENT INHIBITION @) was 50%.

`O=C(Nc1ccc2c(c1)c(Cc1ccc(C(=O)O)cc1)cn2C(c1ccccc1)c1ccccc1)OC1CCCC1` [Example 52, 4-[(1-benzhydryl-5-{[(cyclopentyloxy)carbonyl]amino}-1H-indol-3-yl)methyl]benzoic acid] was tested, and the inhibition in vivo at 2 mg/kg [1, 3] was -6.75%, the inhibition in vivo at 10 mg/kg [1, 4] was 3.33% and the inhibition at 19 µM ([2]; CONCENTRATION 19 micromolar, read-out: PERCENT INHIBITION @) was 50%. The inhibition at 20 µM ([2]; read-out: PERCENT INHIBITION @) was 50%.
